Activity calls are given as the source filed them. The rule behind the calls is not given here.
Tests used:
Escherichia coli = assay: Antibacterial activity against Escherichia coli assessed as growth inhibition at 400 nmol by disc diffusion method; assay type: functional, organism-based
[1] = Inhibition of N-terminal His6-tagged Escherichia coli DXR after 2 mins in presence of NADPH

Row | IC50 [1] | Structure (SMILES) | growth inhibition (GI) (Escherichia coli)
1 | 44000 µM | O=C(CCCCc1nnn[nH]1)NO | inactive
2 | 0.032 µM | O=CN(O)CCCP(=O)(O)O [FOSMIDOMYCIN] | –
3 | 800 µM | CN(O)C(=O)CCCc1nnn[nH]1 | inactive
4 | 4900 µM | CN(O)C(=O)CCCCc1nnn[nH]1 | inactive
5 | 47000 µM | CN(O)C(=O)CCc1nnn[nH]1 | inactive

Row | Structure (SMILES) | IC50 [1] | growth inhibition (GI) (Escherichia coli)
6 | CN(O)C(=O)CCCP(=O)(O)O | 0.048 µM | –

Source: ChEMBL document CHEMBL2331428, “Synthesis of tetrazole analogues of phosphonohydroxamic acids: an attempt to improve the inhibitory activity against the DXR” (Bioorg Med Chem Lett, 2013)
